Data taken from PubChem BioAssay (NCI).
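Where inhibition never reached the appropriate level, the endpoint shown equals the highest concentration tested. Otherwise, values were interpolated linearly from a five-concentration, 48-hour dose response in 96-well plates. The concentration for 50% growth inhibition is given as GI50. Definition used: TGI = concentration required for complete inhibition of growth.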

Experiments:
Test in all cases: DTP human tumour cell line panel, 48 h
[1] = test system: SK-MEL-28 melanoma
[2] = test system: MDA-MB-231 breast
[3] = test system: UO-31 renal
[4] = test system: SN12C renal
[5] = test system: U251 CNS
[6] = test system: A498 renal
[7] = test system: DU-145 prostate
[8] = test system: NCI/ADR-RES ovarian
[9] = test system: NCI-H226 lung
[10] = test system: CCRF-CEM leukemia
[11] = test system: OVCAR-8 ovarian
[12] = test system: CAKI-1 renal
[13] = test system: 786-0 renal
[14] = test system: NCI-H460 lung
[15] = test system: HL-60(TB) leukemia
[16] = test system: T-47D breast
[17] = test system: NCI-H522 lung
[18] = test system: SF-268 CNS
[19] = test system: HCT-15 colon
[20] = test system: SK-MEL-5 melanoma
[21] = test system: IGROV1 ovarian
[22] = test system: SK-OV-3 ovarian
[23] = test system: SNB-75 CNS
[24] = test system: SR leukemia
[25] = test system: A549 NSCLC
[26] = test system: NCI-H23 lung
[27] = test system: SF-295 CNS
[28] = test system: HOP-92 NSCLC
[29] = test system: RXF 393 renal
[30] = test system: SK-MEL-2 melanoma
[31] = test system: HOP-62 NSCLC
[32] = test system: M14 melanoma
[33] = test system: OVCAR-5 ovarian
[34] = test system: BT-549 breast
[35] = test system: SW-620 colon
[36] = test system: UACC-257 melanoma
[37] = test system: HT29 colon
[38] = test system: ACHN renal
[39] = test system: OVCAR-4 ovarian
[40] = test system: COLO 205 colon
[41] = test system: OVCAR-3 ovarian
[42] = test system: HCC-2998 colon
[43] = test system: HCT-116 colon
[44] = test system: SNB-19 CNS
[45] = test system: KM12 colon
[46] = test system: UACC-62 melanoma
[47] = test system: EKVX NSCLC
[48] = test system: MALME-3M melanoma
[49] = test system: MOLT-4 leukemia
[50] = test system: MDA-MB-435
[51] = test system: HS 578T breast
[52] = test system: K-562 leukemia
[53] = test system: LOX IMVI melanoma
[54] = test system: RPMI-8226 leukemia
[55] = test system: PC-3 prostate
[56] = test system: TK-10 renal
[57] = test system: SF-539 CNS
[58] = test system: MCF7 breast

Q: Which results are given for CCN(Cc1ccc(C)cc1)c1ccc(CO)c(Cl)c1?
A: GI50 [1]: 13.3 µM; TGI [1]: 26.2 µM; GI50 [2]: 12.5 µM; TGI [2]: 29.6 µM; GI50 [3]: 3.81 µM; TGI [3]: 17.7 µM; GI50 [4]: 10.6 µM; TGI [4]: 25.8 µM; GI50 [5]: 0.867 µM; TGI [5]: 14.5 µM; GI50 [6]: 0.0398 µM; TGI [6]: 0.178 µM; GI50 [7]: 12.7 µM; TGI [7]: 27.4 µM; GI50 [8]: 11.1 µM; TGI [8]: 25.3 µM; GI50 [9]: 0.0702 µM; TGI [9]: 0.204 µM; GI50 [10]: 15.9 µM; TGI [10]: 51.3 µM; GI50 [11]: 10.6 µM; TGI [11]: 26.1 µM; GI50 [12]: 0.721 µM; TGI [12]: 9.27 µM; GI50 [13]: 4.32 µM; TGI [13]: 19.3 µM; GI50 [14]: 0.306 µM; TGI [14]: 11.7 µM; GI50 [15]: 5.78 µM; TGI [15]: 35.7 µM; GI50 [16]: 0.149 µM; TGI [16]: 0.623 µM; GI50 [17]: 11.5 µM; TGI [17]: 25.7 µM; GI50 [18]: 15 µM; TGI [18]: 30.3 µM; GI50 [19]: 6.41 µM; TGI [19]: 23.2 µM; GI50 [20]: 3.84 µM; TGI [20]: 17.7 µM; GI50 [21]: 0.108 µM; TGI [21]: 0.938 µM; GI50 [22]: 4.23 µM; TGI [22]: 16.8 µM; GI50 [23]: 4.8 µM; TGI [23]: 20.9 µM; GI50 [24]: 17.6 µM; TGI [24]: 46.8 µM; GI50 [25]: 1.55 µM; TGI [25]: 16.2 µM; GI50 [26]: 9.95 µM; TGI [26]: 25.3 µM; GI50 [27]: 1.01 µM; TGI [27]: 15.8 µM; GI50 [28]: 1.86 µM; TGI [28]: 15.3 µM; GI50 [29]: 4.71 µM; TGI [29]: 18.9 µM; GI50 [30]: 2.2 µM; TGI [30]: 16.2 µM; GI50 [31]: 0.779 µM; TGI [31]: 16.4 µM; GI50 [32]: 10.5 µM; TGI [32]: 23.7 µM; GI50 [33]: 0.171 µM; TGI [33]: 0.689 µM; GI50 [34]: 5 µM; TGI [34]: 19 µM; GI50 [35]: 0.763 µM; TGI [35]: 16.5 µM; GI50 [36]: 0.134 µM; TGI [36]: 0.339 µM; GI50 [37]: 2.49 µM; TGI [37]: 14.7 µM; GI50 [38]: 10.1 µM; TGI [38]: 23.2 µM; GI50 [39]: 0.274 µM; TGI [39]: 4.11 µM; GI50 [40]: 0.996 µM; TGI [40]: 4.05 µM; GI50 [41]: 0.605 µM; TGI [41]: 5.31 µM; GI50 [42]: 10.4 µM; TGI [42]: 22.5 µM; GI50 [43]: 0.0966 µM; TGI [43]: 4.11 µM; GI50 [44]: 14.5 µM; TGI [44]: 31.1 µM; GI50 [45]: 14.6 µM; TGI [45]: 29.6 µM; GI50 [46]: 0.0933 µM; TGI [46]: 0.684 µM; GI50 [47]: 12.9 µM; TGI [47]: 29.4 µM; GI50 [48]: 15.5 µM; TGI [48]: 32.2 µM; GI50 [49]: 17 µM; TGI [49]: 45.4 µM; GI50 [50]: 13.7 µM; TGI [50]: 28.5 µM; GI50 [51]: 12.5 µM; TGI [51]: 38.2 µM; GI50 [52]: 2 µM; TGI [52]: > 50.5 µM; GI50 [53]: 7.05 µM; TGI [53]: 19.9 µM; GI50 [54]: 3.32 µM; TGI [54]: 30.6 µM; GI50 [55]: 13.3 µM; TGI [55]: 29.5 µM; GI50 [56]: 0.0795 µM; TGI [56]: 0.309 µM; GI50 [57]: 14.2 µM; TGI [57]: 28.3 µM; GI50 [58]: 0.191 µM; TGI [58]: 11 µM

Q: With Cc1ccc(NC(Nc2ccc(C)cc2C)=C(C(Cl)=C(Cl)Cl)[N+](=O)[O-])c(C)c1 as the compound, how does the TGI [1] read?
A: 35.2 µM

Q: And the TGI [2]?
A: 33 µM

Q: What about the TGI [3] of the same compound?
A: 26.6 µM

Q: What about the TGI [4] of the same compound?
A: 33 µM

Q: What about the TGI [6] of the same compound?
A: 36.3 µM

Q: And the TGI [7]?
A: 27.9 µM

Q: And the TGI [8]?
A: > 100 µM

Q: And the TGI [9]?
A: 32.3 µM

Q: What about the TGI [10] of the same compound?
A: 15.2 µM

Q: What about the TGI [11] of the same compound?
A: 33.9 µM

Q: And the TGI [12]?
A: 37.4 µM

Q: And the TGI [13]?
A: 30.1 µM

Q: What about the TGI [14] of the same compound?
A: 29.7 µM

Q: And the TGI [15]?
A: 22 µM

Q: And the TGI [16]?
A: 32.1 µM

Q: What about the TGI [17] of the same compound?
A: 28 µM

Q: And the TGI [18]?
A: 33.2 µM

Q: And the TGI [19]?
A: 32.3 µM

Q: And the TGI [20]?
A: 14.4 µM

Q: And the TGI [21]?
A: 29.2 µM

Q: And the TGI [22]?
A: 39.8 µM

Q: What about the TGI [23] of the same compound?
A: 22.1 µM

Q: What about the TGI [24] of the same compound?
A: 11.3 µM

Q: And the TGI [25]?
A: 28.4 µM

Q: And the TGI [26]?
A: 20 µM

Q: And the TGI [28]?
A: 31.7 µM

Q: What about the TGI [29] of the same compound?
A: 32.6 µM

Q: And the TGI [31]?
A: 34.2 µM

Q: And the TGI [32]?
A: 21.3 µM

Q: What about the TGI [34] of the same compound?
A: 38.8 µM

Q: And the TGI [35]?
A: 33.1 µM

Q: What about the TGI [36] of the same compound?
A: 35.7 µM

Q: What about the TGI [37] of the same compound?
A: 33.3 µM

Q: And the TGI [38]?
A: 28.5 µM

Q: And the TGI [39]?
A: 33.2 µM

Q: And the TGI [40]?
A: 32 µM

Q: And the TGI [41]?
A: 29.7 µM

Q: And the TGI [42]?
A: 32.4 µM

Q: What about the TGI [43] of the same compound?
A: 26.7 µM

Q: What about the TGI [44] of the same compound?
A: 30 µM

Q: What about the TGI [45] of the same compound?
A: 29.2 µM

Q: What about the TGI [46] of the same compound?
A: 31.9 µM

Q: What about the TGI [47] of the same compound?
A: 29.8 µM

Q: And the TGI [48]?
A: 31.8 µM

Q: And the TGI [49]?
A: 31.2 µM

Q: And the TGI [50]?
A: 17.2 µM

Q: And the TGI [51]?
A: > 100 µM

Q: And the TGI [52]?
A: 24.6 µM

Q: What about the TGI [53] of the same compound?
A: 20.4 µM

Q: What about the TGI [54] of the same compound?
A: 52.8 µM

Q: What about the TGI [55] of the same compound?
A: 25 µM

Q: And the TGI [56]?
A: 33 µM

Q: And the TGI [57]?
A: 43 µM

Q: And the TGI [58]?
A: > 100 µM
